The values that follow come from patent publication US11987588B2, “Modulators of the beta-3 adrenergic receptor useful for the treatment or prevention of heart failure and disorders related thereto” (Arena Pharmaceuticals, Inc., priority 2017, dated 2024).

Sequence of Beta-3 Adrenergic Receptor (P13945 whole entry, species assumed): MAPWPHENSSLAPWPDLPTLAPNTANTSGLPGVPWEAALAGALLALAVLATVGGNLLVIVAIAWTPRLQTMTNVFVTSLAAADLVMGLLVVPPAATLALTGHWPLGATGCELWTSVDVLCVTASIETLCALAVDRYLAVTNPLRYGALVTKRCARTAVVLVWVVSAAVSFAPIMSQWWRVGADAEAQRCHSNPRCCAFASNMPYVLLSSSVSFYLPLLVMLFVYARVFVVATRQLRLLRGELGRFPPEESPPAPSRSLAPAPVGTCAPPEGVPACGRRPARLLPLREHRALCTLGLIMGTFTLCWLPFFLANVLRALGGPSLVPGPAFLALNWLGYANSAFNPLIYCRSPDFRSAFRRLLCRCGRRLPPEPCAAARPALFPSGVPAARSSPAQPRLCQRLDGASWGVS

The target in this assay is Beta-3 Adrenergic Receptor (Homo sapiens (Human), UniProt P13945). Description: Homogeneous Time-Resolved Fluorescence (HTRF) cAMP antagonist assay, IC50 determination. The settings on record: CHO-K1 cells stably expressing recombinant receptor, isoproterenol at EC90. Format: cell-based. An outline of the steps:
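Antagonist mode: isoproterenol at its predetermined EC90 added after compound to recombinant CHO-K1 cells in IBMX-containing PBS, 1 h, room temperature. Compounds tested as 5-fold, 10-point dilutions, top final typically 10 or 100 μM. HTRF signal converted to cAMP via standard curve, giving IC50.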
Background: TR-FRET usually uses a lanthanide donor and a delayed reading to cut background.
The IC50 is the concentration needed to halve the response being measured. Consider `CNS(=O)(=O)c1cccc(OC[C@@H](O)CNC2COC3(CCN(S(=O)(=O)c4cccc(C(=O)O)c4)CC3)C2)c1` (stereo partly drawn) [Compound 56, 3-(3-((S)-2-hydroxy-3-(3-(N-methylsulfamoyl)phenoxy)propylamino)-1-oxa-8-azaspiro[4.5]decan-8-ylsulfonyl)benzoic acid], for which the IC50 was found to be 387 nM.

`CNS(=O)(=O)c1cccc(OC[C@@H](O)CNC2COC3(CCN(S(=O)(=O)c4cccc(F)c4Cl)CC3)C2)c1` (stereo partly drawn) [Compound 199, 3-((2S)-3-(8-(2-chloro-3-fluorophenylsulfonyl)-1-oxa-8-azaspiro[4.5]decan-3-ylamino)-2-hydroxypropoxy)-N-methylbenzenesulfonamide]: the IC50 is 15 nM.

Consider `CCn1cc(S(=O)(=O)N2CCC3(CC2)C[C@@H](NC[C@H](O)COc2cccc(S(=O)(=O)NC)c2)CO3)c(=O)c2ccc(C)cc21` [Compound 531, 3-((S)-3-((R)-8-(1-ethyl-7-methyl-4-oxo-1,4-dihydroquinolin-3-ylsulfonyl)-1-oxa-8-azaspiro[4.5]decan-3-ylamino)-2-hydroxypropoxy)-N-methylbenzenesulfonamide], for which the IC50 was determined as 50.5 nM.

In the case of `CNS(=O)(=O)c1cccc(OC[C@@H](O)CNC2COC3(CCN(S(=O)(=O)c4ccc(OC)c5c4CCCC5)CC3)C2)c1` (stereo partly drawn) [Compound 222, 3-((2S)-2-hydroxy-3-(8-(4-methoxy-5,6,7,8-tetrahydronaphthalen-1-ylsulfonyl)-1-oxa-8-azaspiro[4.5]decan-3-ylamino)propoxy)-N-methylbenzenesulfonamide], the IC50 worked out at 109 nM.

Turning to `CNS(=O)(=O)c1cccc(OC[C@@H](O)CNC2COC3(CCN(S(=O)(=O)c4cccc(C)c4F)CC3)C2)c1` (stereo partly drawn) [Compound 160, 3-((2S)-3-(8-(2-fluoro-3-methylphenylsulfonyl)-1-oxa-8-azaspiro[4.5]decan-3-ylamino)-2-hydroxypropoxy)-N-methylbenzenesulfonamide], the IC50 was 14.6 nM.

`O=S(=O)(NCCCO)c1cccc(OC[C@@H](O)CNC2COC3(CCN(S(=O)(=O)c4ccc5ccccc5c4)CC3)C2)c1` (stereo partly drawn) [Compound 51, 3-((2S)-2-hydroxy-3-(8-(naphthalen-2-ylsulfonyl)-1-oxa-8-azaspiro[4.5]decan-3-ylamino)propoxy)-N-(3-hydroxypropyl)benzenesulfonamide]: the IC50 was determined as 58.5 nM.

For `NS(=O)(=O)c1cccc(OC[C@@H](O)CN[C@H]2COC3(CCN(S(=O)(=O)c4c[nH]c5ccc(F)cc5c4=O)CC3)C2)c1` [Compound 552, 3-((S)-3-((R)-8-(6-fluoro-4-oxo-1,4-dihydroquinolin-3-ylsulfonyl)-1-oxa-8-azaspiro[4.5]decan-3-ylamino)-2-hydroxypropoxy)benzenesulfonamide], the IC50 is 17.8 nM.

Take `CNS(=O)(=O)c1cccc(OC[C@@H](O)CNC2COC3(CCN(S(=O)(=O)c4ccc(NCCN)nc4)CC3)C2)c1` (stereo partly drawn) [Compound 429, 3-((2S)-3-(8-(6-(2-aminoethylamino)pyridin-3-ylsulfonyl)-1-oxa-8-azaspiro[4.5]decan-3-ylamino)-2-hydroxypropoxy)-N-methylbenzenesulfonamide]: the IC50 turned out to be 149 nM.

For `CCNS(=O)(=O)c1cccc(OC[C@@H](O)CN[C@H]2COC3(CCN(S(=O)(=O)c4cnc5cc[nH]c5c4)CC3)C2)c1` [Compound 520, 3-((S)-3-((R)-8-(1H-pyrrolo[3,2-b]pyridin-6-ylsulfonyl)-1-oxa-8-azaspiro[4.5]decan-3-ylamino)-2-hydroxypropoxy)-N-ethylbenzenesulfonamide], the IC50 was found to be 14.6 nM.

In the case of `Cc1c[nH]c2ncc(S(=O)(=O)N3CCC4(CC3)C[C@@H](NC[C@H](O)COc3cccc(S(N)(=O)=O)c3)CO4)cc12` [Compound 558, 3-((S)-2-hydroxy-3-((R)-8-(3-methyl-1H-pyrrolo[2,3-b]pyridin-5-ylsulfonyl)-1-oxa-8-azaspiro[4.5]decan-3-ylamino)propoxy)benzenesulfonamide], the IC50 was found to be 13.6 nM.

Consider `CNS(=O)(=O)c1cccc(OC[C@@H](O)CNC2COC3(CCN(S(=O)(=O)c4cccc(-c5cccc(C(=O)O)c5)c4)CC3)C2)c1` (stereo partly drawn) [Compound 112, 3′-(3-((S)-2-hydroxy-3-(3-(N-methylsulfamoyl)phenoxy)propylamino)-1-oxa-8-azaspiro[4.5]decan-8-ylsulfonyl)biphenyl-3-carboxylic acid], for which the IC50 turned out to be 239 nM.

Consider `CCn1cc(S(=O)(=O)N2CCC3(CC2)C[C@@H](NC[C@H](O)COc2cccc(S(N)(=O)=O)c2)CO3)c(=O)c2ccccc21` [Compound 550, 3-((S)-3-((R)-8-(1-ethyl-4-oxo-1,4-dihydroquinolin-3-ylsulfonyl)-1-oxa-8-azaspiro[4.5]decan-3-ylamino)-2-hydroxypropoxy)benzenesulfonamide], for which the IC50 was 40.3 nM.

In the case of `CNS(=O)(=O)c1cccc(OC[C@@H](O)CN[C@@H]2COC3(CCN(S(=O)(=O)c4cccc(-c5ccc(CNCCC(C)C)cc5)c4)CC3)C2)c1` [Compound 361, 3-((S)-2-hydroxy-3-((S)-8-(4′-((isopentylamino)methyl)biphenyl-3-ylsulfonyl)-1-oxa-8-azaspiro[4.5]decan-3-ylamino)propoxy)-N-methylbenzenesulfonamide], the IC50 came to 22.1 nM.

For `CNS(=O)(=O)c1cccc(OC[C@@H](O)CNC2COC3(CCN(S(=O)(=O)c4ccc(C#N)c(Cl)c4)CC3)C2)c1` (stereo partly drawn) [Compound 239, 3-((2S)-3-(8-(3-chloro-4-cyanophenylsulfonyl)-1-oxa-8-azaspiro[4.5]decan-3-ylamino)-2-hydroxypropoxy)-N-methylbenzenesulfonamide], the 50% inhibitory concentration (IC50) was 22.3 nM.

Regarding `CN(C)CCCNS(=O)(=O)c1cccc(OC[C@@H](O)CNC2COC3(CCN(S(=O)(=O)c4ccc5c(c4)NC(=O)CO5)CC3)C2)c1` (stereo partly drawn) [Compound 311, N-(3-(dimethylamino)propyl)-3-((2S)-2-hydroxy-3-(8-(3-oxo-3,4-dihydro-2H-benzo[b][1,4]oxazin-6-ylsulfonyl)-1-oxa-8-azaspiro[4.5]decan-3-ylamino)propoxy)benzenesulfonamide], the half-inhibitory concentration (IC50) came out at 2000 nM.

With `CNS(=O)(=O)c1cccc(OC[C@@H](O)CNC2COC3(CCN(S(=O)(=O)c4ccc(C)c(C#N)c4)CC3)C2)c1` (stereo partly drawn) [Compound 198, 3-((2S)-3-(8-(3-cyano-4-methylphenylsulfonyl)-1-oxa-8-azaspiro[4.5]decan-3-ylamino)-2-hydroxypropoxy)-N-methylbenzenesulfonamide], the IC50 came out at 8.65 nM.

Take `CNS(=O)(=O)c1cccc(OC[C@@H](O)CNC2COC3(CCN(S(=O)(=O)c4ccc(OC(F)(F)F)cc4)CC3)C2)c1` (stereo partly drawn) [Compound 57, 3-((2S)-2-hydroxy-3-(8-(4-(trifluoromethoxy)phenylsulfonyl)-1-oxa-8-azaspiro[4.5]decan-3-ylamino)propoxy)-N-methylbenzenesulfonamide]: the IC50 is 31.7 nM.

Regarding `CNS(=O)(=O)c1cccc(OC[C@@H](O)CN[C@@H]2COC3(CCN(S(=O)(=O)c4ccc(Br)c(C)c4)CC3)C2)c1` [Compound 270, 3-((S)-3-((S)-8-(4-bromo-3-methylphenylsulfonyl)-1-oxa-8-azaspiro[4.5]decan-3-ylamino)-2-hydroxypropoxy)-N-methylbenzenesulfonamide], the IC50 was 16.7 nM.

In the case of `CNS(=O)(=O)c1cccc(OC[C@@H](O)CNC2COC3(CCN(S(=O)(=O)c4cccc(-c5ccc(CNC(=O)CC(=O)O)cc5)c4)CC3)C2)c1` (stereo partly drawn) [Compound 352, 3-((3′-(3-((S)-2-hydroxy-3-(3-(N-methylsulfamoyl)phenoxy)propylamino)-1-oxa-8-azaspiro[4.5]decan-8-ylsulfonyl)biphenyl-4-yl)methylamino)-3-oxopropanoic acid], the IC50 was 167 nM.

For the molecule `CNS(=O)(=O)c1cccc(OC[C@@H](O)CNC2COC3(CCN(S(=O)(=O)c4ccc5nsnc5c4)CC3)C2)c1` (stereo partly drawn) [Compound 177, 3-((2S)-3-(8-(benzo[c][1,2,5]thiadiazol-5-ylsulfonyl)-1-oxa-8-azaspiro[4.5]decan-3-ylamino)-2-hydroxypropoxy)-N-methylbenzenesulfonamide], the IC50 turned out to be 11.9 nM.

For `CNS(=O)(=O)c1cccc(OC[C@@H](O)CNC2COC3(CCN(S(=O)(=O)c4c(C)noc4C)CC3)C2)c1` (stereo partly drawn) [Compound 188, 3-((2S)-3-(8-(3,5-dimethylisoxazol-4-ylsulfonyl)-1-oxa-8-azaspiro[4.5]decan-3-ylamino)-2-hydroxypropoxy)-N-methylbenzenesulfonamide], the IC50 turned out to be 18.1 nM.

In the case of `CNS(=O)(=O)c1cccc(OC[C@@H](O)CN[C@H]2COC3(CCN(c4nc(OC)cc(OC)n4)CC3)C2)c1` [Compound 584, 3-((S)-3-((R)-8-(4,6-dimethoxypyrimidin-2-yl)-1-oxa-8-azaspiro[4.5]decan-3-ylamino)-2-hydroxypropoxy)-N-methylbenzenesulfonamide], the IC50 worked out at 266 nM.

Regarding `Cc1nc2cc(S(=O)(=O)N3CCC4(CC3)C[C@@H](NC[C@H](O)COc3cccc(S(N)(=O)=O)c3)CO4)cnc2[nH]1` [Compound 559, 3-((S)-2-hydroxy-3-((R)-8-(2-methyl-3H-imidazo[4,5-b]pyridin-6-ylsulfonyl)-1-oxa-8-azaspiro[4.5]decan-3-ylamino)propoxy)benzenesulfonamide], the IC50 came out at 34.7 nM.

In the case of `CNS(=O)(=O)c1cccc(OC[C@@H](O)CN[C@H]2COC3(CCN(S(=O)(=O)c4cnc5nc(C)[nH]c5c4)CC3)C2)c1` [Compound 486, 3-((S)-2-hydroxy-3-((R)-8-(2-methyl-1H-imidazo[4,5-b]pyridin-6-ylsulfonyl)-1-oxa-8-azaspiro[4.5]decan-3-ylamino)propoxy)-N-methylbenzenesulfonamide], the half-inhibitory concentration (IC50) was 41.5 nM.

In the case of `CN1CCOc2ccc(S(=O)(=O)N3CCC4(CC3)CC(NC[C@H](O)COc3cccc(S(=O)(=O)N(C)C)c3)CO4)cc21` (stereo partly drawn) [Compound 256, 3-((2S)-2-hydroxy-3-(8-(4-methyl-3,4-dihydro-2H-benzo[b][1,4]oxazin-6-ylsulfonyl)-1-oxa-8-azaspiro[4.5]decan-3-ylamino)propoxy)-N,N-dimethylbenzenesulfonamide], the IC50 was found to be 21.1 nM.
